Data taken from patent US8796245B2 (TetraPhase Pharmaceuticals, Inc., priority 2008, dated 2014).
Converted amounts (≈) assume the structure as drawn.

How the values were obtained:
Assay type in all cases: cell-based
[1] = tested on: S. aureus ATCC 29213 (SA101, MSSA); assay: Minimum inhibitory concentration assay, SA101; settings: Staphylococcus aureus; S. aureus ATCC 29213, MSSA control; read-out: MICs SA101
Experimental: (§1) Frozen bacterial strains were thawed and subcultured onto Mueller Hinton Broth (MHB) or other appropriate media (Streptococcus requires blood and Haemophilus requires hemin and NAD). Following incubation overnight, the strains were subcultured onto Mueller Hinton Agar and again incubated overnight. […] Isolated colonies were selected to prepare a starting inoculum equivalent to a 0.5 McFarland standard. The starting inoculum was diluted 1:125 using MHB for further use. Test compounds were prepared by dilution in sterile water to a final concentration of 5.128 mg/mL. Antibiotics (stored frozen, thawed and used within 3 hours of thawing) and compounds were further diluted to the desired working concentrations.
(§2) The assays were run as follows. Fifty μL of MHB was added to wells 2-12 of a 96-well plate. One hundred […] of appropriately diluted antibiotics was added to well 1. Fifty μL of antibiotics was removed from well 1 and added to well 2 and the contents of well 2 mixed by pipetting up and down five times. Fifty μL of the mixture in well 2 was removed and added to well 3 and mixed as above. Serial dilutions were continued in the same manner through well 12. Fifty μL was removed from well 12 so that all contained 50 μL. Fifty μL of the working inoculum was then added to all test wells. A growth control well was prepared by adding 50 μL of working inoculum and 50 μL of MHB to an empty well. The plates were then incubated at 37° C. overnight, removed from the incubator and each well was read on a plate reading mirror. The lowest concentration (MIC) of test compound that inhibited the growth of the bacteria was recorded.

[2] = tested on: S. aureus ATCC 13709 (SA100, MSSA, Smith strain); assay: Minimum inhibitory concentration assay, SA100; settings: Staphylococcus aureus; S. aureus ATCC 13709, MSSA Smith strain; read-out: MICs SA100
Experimental: as §1, §2

[3] = tested on: S. aureus SA161 (tet resistant: tet(M) ribosomal protection); assay: Minimum inhibitory concentration assay, SA161; settings: Staphylococcus aureus, read-out: MICs SA161
Experimental: as §1, §2

[4] = tested on: E. coli EC155 (tet resistant: tetA efflux); assay: microbe, parasite or virus in culture; settings: Escherichia coli; E. coli tet resistant: tetA (efflux); read-out: MICs EC155
Experimental: as §1, §2

[5] = tested on: K. pneumoniae KP153 (tet resistant: tetA efflux); assay: microbe, parasite or virus in culture; settings: Klebsiella pneumoniae, read-out: MICs KP153
Experimental: as §1, §2

[6] = tested on: S. aureus SA158 (tet resistant: tetK efflux); assay: microbe, parasite or virus in culture; settings: Staphylococcus aureus, read-out: MICs SA158
Experimental: as §1, §2

[7] = tested on: E. faecalis ATCC 29212 (EF103); assay: Minimum inhibitory concentration assay, EF103; settings: Enterococcus faecalis, ATCC29212, read-out: MICs EF103
Experimental: as §1, §2

[8] = tested on: E. faecalis EF159 (tet resistant: tetM); assay: Minimum inhibitory concentration assay, EF159; settings: Enterococcus faecalis, read-out: MICs EF159
Experimental: as §1, §2

[9] = tested on: S. pneumoniae ATCC 49619 (SP106); assay: Minimum inhibitory concentration assay, SP106; settings: Streptococcus pneumoniae, ATCC49619; S. pneumoniae ATCC 49619, wt; read-out: MICs SP106
Experimental: as §1, §2

[10] = tested on: S. pneumoniae SP160 (tet resistant: tet M); assay: Minimum inhibitory concentration assay, SP160; settings: Streptococcus pneumoniae, read-out: MICs SP160
Experimental: as §1, §2

[11] = tested on: E. coli ATCC 25922 (EC107); assay: Minimum inhibitory concentration assay, EC107; settings: Escherichia coli, ATCC25922; E. coli ATCC 25922, wt; read-out: MICs EC107
Experimental: as §1, §2

[12] = tested on: A. baumanii ATCC 19606 (AB110); assay: Minimum inhibitory concentration assay, AB110; settings: Acinetobacter baumannii, ATCC19606; A. baumanii ATCC 19606, wt; read-out: MICs AB110
Experimental: as §1, §2

[13] = tested on: P. aeruginosa ATCC 27853 (PA111); assay: Minimum inhibitory concentration assay, PA111; settings: Pseudomonas aeruginosa, ATCC27853; P. aeruginosa ATCC 27853, wt; read-out: MICs PA111
Experimental: as §1, §2

[14] = tested on: E. cloacae ATCC 13047 (EC108); assay: Minimum inhibitory concentration assay, EC108; settings: Enterobacter cloacae, ATCC13047; E. cloacae ATCC 13047, wt; read-out: MICs EC108
Experimental: as §1, §2

[15] = tested on: K. pneumoniae ATCC 13883 (KP109); assay: Minimum inhibitory concentration assay, KP109; settings: Klebsiella pneumoniae, ATCC13883; K. pneumoniae ATCC 13883, wt; read-out: MICs KP109
Experimental: as §1, §2

Structure (SMILES) | MIC [1] [µg/mL] | MIC [2] [µg/mL] | MIC [3] [µg/mL] | MIC [4] [µg/mL] | MIC [5] [µg/mL] | MIC [6] [µg/mL] | MIC [7] [µg/mL] | MIC [8] [µg/mL] | MIC [9] [µg/mL] | MIC [10] [µg/mL] | MIC [11] [µg/mL] | MIC [12] [µg/mL] | MIC [13] [µg/mL] | MIC [14] [µg/mL] | MIC [15] [µg/mL]
CN(C)[C@@H]1C(O)=C(C(N)=O)C(=O)[C@@]2(O)C(O)=C3C(=O)c4c(O)c(NC(=O)CN5CC[C@H](F)C5)cc(F)c4C[C@H]3C[C@@H]12 [Compound 36] | 0.25 (≈ 0.434 µM) | 0.5 (≈ 0.867 µM) | 0.5 (≈ 0.867 µM) | 32 (≈ 55.5 µM) | 32 (≈ 55.5 µM) | 1 (≈ 1.73 µM) | 0.25 (≈ 0.434 µM) | 0.25 (≈ 0.434 µM) | ≤ 0.0156 | ≤ 0.0156 | 2 (≈ 3.47 µM) | 0.125 (≈ 0.217 µM) | > 32 | 4 (≈ 6.94 µM) | 4 (≈ 6.94 µM)
COCCCNCC(=O)Nc1cc(F)c2c(c1O)C(=O)C1=C(O)[C@]3(O)C(=O)C(C(N)=O)=C(O)[C@@H](N(C)C)[C@@H]3C[C@@H]1C2 [Compound 27] | 2 (≈ 3.47 µM) | 2 (≈ 3.47 µM) | 4 (≈ 6.94 µM) | 32 (≈ 55.5 µM) | 32 (≈ 55.5 µM) | 16 (≈ 27.7 µM) | 2 (≈ 3.47 µM) | 4 (≈ 6.94 µM) | 0.125 (≈ 0.217 µM) | 0.5 (≈ 0.867 µM) | 4 (≈ 6.94 µM) | 16 (≈ 27.7 µM) | > 32 | 16 (≈ 27.7 µM) | 8 (≈ 13.9 µM)
CN(C)[C@@H]1C(O)=C(C(N)=O)C(=O)[C@@]2(O)C(O)=C3C(=O)c4c(O)c(NC(=O)CNC5CC5)cc(F)c4C[C@H]3C[C@@H]12 [Compound 17] | 0.25 (≈ 0.459 µM) | 0.5 (≈ 0.918 µM) | 1 (≈ 1.84 µM) | 32 (≈ 58.8 µM) | 32 (≈ 58.8 µM) | 2 (≈ 3.67 µM) | 0.25 (≈ 0.459 µM) | 1 (≈ 1.84 µM) | 0.0625 (≈ 0.115 µM) | 0.0625 (≈ 0.115 µM) | 2 (≈ 3.67 µM) | 0.5 (≈ 0.918 µM) | 32 (≈ 58.8 µM) | 8 (≈ 14.7 µM) | 4 (≈ 7.35 µM)
CCN(CC)CC(=O)Nc1cc(F)c2c(c1O)C(=O)C1=C(O)[C@]3(O)C(=O)C(C(N)=O)=C(O)[C@@H](N(C)C)[C@@H]3C[C@@H]1C2 [Compound 25] | 0.125 (≈ 0.223 µM) | 0.125 (≈ 0.223 µM) | 0.125 (≈ 0.223 µM) | 8 (≈ 14.3 µM) | 8 (≈ 14.3 µM) | 0.0313 (≈ 0.0558 µM) | ≤ 0.0156 | 0.0625 (≈ 0.111 µM) | ≤ 0.0156 | ≤ 0.0156 | 0.5 (≈ 0.892 µM) | 0.125 (≈ 0.223 µM) | 32 (≈ 57.1 µM) | 2 (≈ 3.57 µM) | 2 (≈ 3.57 µM)
CN(C)[C@@H]1C(O)=C(C(N)=O)C(=O)[C@@]2(O)C(O)=C3C(=O)c4c(O)c(NC(=O)CN5CCCC5)cc(F)c4C[C@H]3C[C@@H]12 [Compound 34] | ≤ 0.0156 | 0.0625 (≈ 0.112 µM) | 0.0625 (≈ 0.112 µM) | 2 (≈ 3.58 µM) | 2 (≈ 3.58 µM) | 0.125 (≈ 0.224 µM) | ≤ 0.0156 | ≤ 0.0156 | ≤ 0.0156 | ≤ 0.0156 | 0.25 (≈ 0.448 µM) | 0.125 (≈ 0.224 µM) | 16 (≈ 28.6 µM) | 1 (≈ 1.79 µM) | 0.5 (≈ 0.895 µM)
CN(C)[C@@H]1C(O)=C(C(N)=O)C(=O)[C@@]2(O)C(O)=C3C(=O)c4c(O)c(NC(=O)CN5CC[C@@H](F)C5)cc(F)c4C[C@H]3C[C@@H]12 [Compound 35] | 0.25 (≈ 0.434 µM) | 0.25 (≈ 0.434 µM) | 0.5 (≈ 0.867 µM) | 16 (≈ 27.8 µM) | 8 (≈ 13.9 µM) | 0.5 (≈ 0.867 µM) | 0.125 (≈ 0.217 µM) | 0.25 (≈ 0.434 µM) | 0.016 (≈ 0.0278 µM) | 0.016 (≈ 0.0278 µM) | 1 (≈ 1.73 µM) | 0.25 (≈ 0.434 µM) | > 32 | 8 (≈ 13.9 µM) | 4 (≈ 6.94 µM)
